Measured values published in PMC6155255, “Synthetic Peptides Derived from Bovine Lactoferricin Exhibit Antimicrobial Activity against E. coli ATCC 11775, S. maltophilia ATCC 13636 and S. enteritidis ATCC 13076” (Molecules : A Journal of Synthetic Chemistry and Natural …, 2017).
Where two headings read alike, the source gives them in different places. Positions of bridges follow the written chain, without caps; N, C: chain ends. Non-standard residues stand in square brackets, D forms with d. Residues, ends and D or L forms follow the SMILES beside them. Chains are numbered I, II in the order given. No end group written: not given here. Ahx = NCCCCCC(=O)O

Tests used:
[1] = system: E. coli ATCC 11775; type: cell-based, Escherichia coli
Experimental: (§1) The MIC and MBC were determined using a microdilution assay. In brief, bacterial strains were incubated for 18 to 24 h at 37 °C in an MH broth until an optical density of 0.15 to 0.30 (620 nm) was obtained. 90 µL of Mueller-Hinton broth (MHB) were mixed with 90 µL of peptide (440 µg/mL), and using a 96-well microtiter plate peptide, serial dilution (200, 100, 50, 25, 12.5, and 6.2 µg/mL) was performed. 10 µL of inoculum (2 × 10^6 CFU/mL) was added to each well. Final volume in each well was 100 µL. Then they were incubated for 24 h at 37 °C; and the absorbance at 620 nm was measured using an Asys Expert Plus ELISA reader. To determine the MBC, an aliquot was taken from each well and was spread onto a MHA plate. After 24 h at 37 °C, the CFU/mL was determined. Each of these tests was performed twice.

[2] = system: S. maltophilia ATCC 13636; type: cell-based, Stenotrophomonas maltophilia
Experimental: as §1

[3] = system: S. enteritidis ATCC 13076; type: cell-based, Salmonella enteritidis
Experimental: as §1

[4] = system: E. coli ATCC 25922; conditions: cited from earlier work
Experimental: This apparent discrepancy could be related to the method used for determining the MIC [46, 47]. The antibacterial activity of LfcinB against E. coli IID861 was determined using the microdilution method with Mueller-Hinton broth (MIC = 50 µg/mL) or peptone-based broth (MIC = 6 µg/mL). […] Antibacterial activity against E. coli ATCC 25922 has also been reported, s ...

[5] = system: E. coli K88; set-up: method as in PMID 11248238, PMID 21607695, doi:10.1002/(SICI)1099-1387(199901)5:1<32::AID-PSC172>3.0.CO; conditions: cited from earlier work
[6] = system: E. coli ATCC 25922
[7] = E. coli ATCC 11775, aliquot of each well spread on MHA plate, 24 h at 37 °C, CFU/mL, performed twice
[8] = E. coli ATCC 11775, microdilution, Mueller-Hinton broth, 24 h at 37 °C, absorbance 620 nm, 6.2-200 µg/mL tested, performed twice
[9] = E. coli ATCC 11775, value in brackets (µM), aliquot spread on MHA plate, 24 h at 37 °C, performed twice
[10] = E. coli ATCC 11775, value in brackets (µM), microdilution, Mueller-Hinton broth, 24 h at 37 °C, performed twice
[11] = S. maltophilia ATCC 13636, aliquot of each well spread on MHA plate, 24 h at 37 °C, CFU/mL, performed twice
[12] = S. maltophilia ATCC 13636, microdilution, Mueller-Hinton broth, 24 h at 37 °C, absorbance 620 nm, 6.2-200 µg/mL tested, performed twice
[13] = S. enteritidis ATCC 13076, aliquot of each well spread on MHA plate, 24 h at 37 °C, CFU/mL, performed twice
[14] = S. enteritidis ATCC 13076, microdilution, Mueller-Hinton broth, 24 h at 37 °C, absorbance 620 nm, 6.2-200 µg/mL tested, performed twice

Row | Compound | MBC ([1]; ATCC 11775, 24 h) [µM] | MIC ([1]; ATCC 11775, 24 h) [µM] | MBC [1, 7] [µg/mL] | MIC [1, 8] [µg/mL] | MBC [1, 9] [µM] | MIC [1, 10] [µM] | MBC ([2]; ATCC 13636, 24 h) | MIC ([2]; ATCC 13636, 24 h) | MBC [2, 11] [µg/mL] | MIC [2, 12] [µg/mL] | MBC ([3]; ATCC 13076, 24 h) [µM] | MIC ([3]; ATCC 13076, 24 h) [µM] | MBC [3, 13] [µg/mL] | MIC [3, 14] [µg/mL] | MIC ([4]; palindromic sequences) [µg/mL] | MIC [4] [µg/mL] | MIC [5] [µg/mL] | MIC [6] [µg/mL] | MIC ([3]; S. enteritidis ATCC 13076, value in brackets (µM), microdilution, Mueller-Hinton broth, 24 h at 37 °C, performed twice) [µM]
1 | N=C(N)NCCC[C@H](NC(=O)[C@H](Cc1c[nH]c2ccccc12)NC(=O)[C@H](CCC(N)=O)NC(=O)[C@H](Cc1c[nH]c2ccccc12)NC(=O)[C@H](CCCNC(=N)N)NC(=O)[C@@H](N)CCCNC(=N)N)C(=O)NCCCC[C@H](NC(=O)[C@H](CCCNC(=N)N)NC(=O)[C@H](Cc1c[nH]c2ccccc12)NC(=O)[C@H](CCC(N)=O)NC(=O)[C@H](Cc1c[nH]c2ccccc12)NC(=O)[C@H](CCCNC(=N)N)NC(=O)[C@@H](N)CCCNC(=N)N)C(=O)NCCCCCC(=O)N[C@@H](CSSC[C@H](NC(=O)CCCCCNC(=O)[C@H](CCCCNC(=O)[C@H](CCCNC(=N)N)NC(=O)[C@H](Cc1c[nH]c2ccccc12)NC(=O)[C@H](CCC(N)=O)NC(=O)[C@H](Cc1c[nH]c2ccccc12)NC(=O)[C@H](CCCNC(=N)N)NC(=O)[C@@H](N)CCCNC(=N)N)NC(=O)[C@H](CCCNC(=N)N)NC(=O)[C@H](Cc1c[nH]c2ccccc12)NC(=O)[C@H](CCC(N)=O)NC(=O)[C@H](Cc1c[nH]c2ccccc12)NC(=O)[C@H](CCCNC(=N)N)NC(=O)[C@@H](N)CCCNC(=N)N)C(N)=O)C(N)=O [LfcinB (20–25)4] (I: H-RRWQWRK[Ahx]C-NH2 / II: H-RRWQWRK[Ahx]C-NH2 / III: H-RRWQWR / IV: H-RRWQWR; amide I:7-III:C, II:7-IV:C; disulfide I:9-II:9) | 5 | 5 | 25 | 25 | 5.5 | 5.5 | 44 µM | > 44 µM | 200 | > 200 | 22 | 44 | 100 | 200 | – | – | – | – | –
2 | CSCC[C@H](NC(=O)[C@H](CCCNC(=N)N)NC(=O)[C@H](Cc1c[nH]c2ccccc12)NC(=O)[C@H](CCC(N)=O)NC(=O)[C@H](Cc1c[nH]c2ccccc12)NC(=O)[C@H](CCCNC(=N)N)NC(=O)[C@H](CCCNC(=N)N)NC(=O)[C@H](CS)NC(=O)[C@H](CCCCN)NC(=O)[C@@H](N)Cc1ccccc1)C(=O)N[C@@H](CCCCN)C(=O)N[C@@H](CCCCN)C(=O)N[C@@H](CC(C)C)C(=O)NCC(=O)N[C@@H](C)C(N)=O [LfcinB 17–31] | 13 | 13 | 25 | 25 | 12.5 | 12.5 | > 100 µM | > 100 µM | > 200 | > 200 | 100 | > 100 | 200 | > 200 | – | – | – | – | –
3 | RWRWR | – | – | – | – | – | – | – | – | – | – | – | – | – | – | 200 | – | – | – | –
4 | FKCRRWAQRWRMKKLGAPSITCVRRAF [synthetic peptide homolog to LfcinB, 27 residues, from the literature] | – | – | – | – | – | – | – | – | – | – | – | – | – | – | – | 30 | 64 | – | –
5 | RRWQWR-NH2 [LfcinB 20–25] | 13 | 13 | – | – | – | – | > 203 µM | > 203 µM | – | – | 102 | 102 | – | – | – | – | – | – | –
6 | WRYRW | – | – | – | – | – | – | – | – | – | – | – | – | – | – | 100 | – | – | – | –
7 | N=C(N)NCCC[C@@H]1NC(=O)[C@H](Cc2c[nH]c3ccccc23)NC(=O)[C@H](CCC(N)=O)NC(=O)[C@H](Cc2c[nH]c3ccccc23)NC(=O)[C@H](CCCNC(=N)N)NC(=O)[C@H](CCCNC(=N)N)NC(=O)[C@@H](N)CSSC[C@@H](C(N)=O)NC(=O)CCCCCNC1=O [LfcinB (20–25)Cyc] (H-CRRWQWR[Ahx]C-NH2; disulfide 1-9; N-terminus assumed) | 19 | 19 | 25 | 25 | 21 | 21 | 200 µg/mL | 200 µg/mL | – | – | 42 | 42 | 50 | 50 | – | – | – | – | –
8 | RWQWRWQWR-NH2 [LfcinB 21–25Pal] | 8 | 8 | – | – | – | – | 136 µM | > 136 µM | – | – | 17 | 17 | – | – | – | – | – | 40 | –
9 | N=C(N)NCCC[C@H](NC(=O)[C@H](Cc1c[nH]c2ccccc12)NC(=O)[C@H](CCC(N)=O)NC(=O)[C@H](Cc1c[nH]c2ccccc12)NC(=O)[C@H](CCCNC(=N)N)NC(=O)[C@@H](N)CCCNC(=N)N)C(=O)NCCCC[C@H](NC(=O)[C@H](CCCNC(=N)N)NC(=O)[C@H](Cc1c[nH]c2ccccc12)NC(=O)[C@H](CCC(N)=O)NC(=O)[C@H](Cc1c[nH]c2ccccc12)NC(=O)[C@H](CCCNC(=N)N)NC(=O)[C@@H](N)CCCNC(=N)N)C(=O)NCCCCCC(N)=O [LfcinB (20–25)2] (I: H-RRWQWRK[Ahx]-NH2 / II: H-RRWQWR; amide I:7-II:C) | 3 | 3 | 6.2 | 6.2 | 2.8 | 2.8 | 22.4 µM | 22.4 µM | 50 | 50 | 5.6 | 6 | 12.5 | 12.5 | – | – | – | – | 5.6
10 | KCRRWAQRWRMKKLGAPSITCVR [shorter peptide, 23 residues, from the literature] | – | – | – | – | – | – | – | – | – | – | – | – | – | – | – | 30 | – | – | –
11 | WRWRW | – | – | – | – | – | – | – | – | – | – | – | – | – | – | 15 | – | – | – | –
